Data published in patent US20110104361A1, “TASTE-IMPROVING AGENT FOR POTASSIUM SALT OR POTASSIUM SALT-CONTAINING FOOD OR DRINK” (OGAWA & CO., LTD., priority 2008, published 2011).

What was measured:
[1] = Organoleptic evaluation, ramen soup (Test Example 11); settings: addition quinic acid-containing composition 5.0 ppm, spilanthol 0.1 ppm, shallot extract 10.0 ppm, panel of 10 experts vs control
Description: The taste-improving agents obtained in Production Examples 1-5 were used to examine the taste-improving effects on potassium salts or potassium salt-containing foods or drinks. [table] To reduced-sodium ramen soup having the following formulation 4 there were added each of the agents for improving taste of Production Examples 2, 4 and 5 so that the contents of the quinic acid-containing composition (Production Example 2), purified spilanthol (Production Example 4) and shallot extract (Production Example 5) in the soup were as listed in Table 8, and an organoleptic evaluation was conducted by a panel of 10 experts based on the rating scale shown in Table 1, with a product containing no agent for improving taste according to the invention, as the control. [table] A 20 g portion of the powder above was dissolved in 500 g of hot water.

[2] = Organoleptic evaluation, meat sauce (Test Example 14); settings: addition quinic acid-containing composition 5.0 ppm, spilanthol 0.1 ppm, shallot extract 10.0 ppm, panel of 10 experts vs control
Description: (§1) The taste-improving agents obtained in Production Examples 1-5 were used to examine the taste-improving effects on potassium salts or potassium salt-containing foods or drinks. [table] To reduced-sodium meat sauce having the following formulation 8 there were added each of the agents for improving taste of Production Examples 1, 2, 4 and 5 so that the contents of the quinic acid-containing compositions (Production Examples 1 and 2), purified spilanthol (Production Example 4) and shallot extract (Production Example 5) in the meat sauce were as listed in Table 12, and an organoleptic evaluation was conducted by a panel of 10 experts based on the rating scale shown in Table 1, with a product containing no agent for improving taste according to the invention, as the control. [table]

[3] = Organoleptic evaluation, potassium chloride aqueous solution (Test Example 5); settings: 0.75 wt % KCl aqueous solution; addition quinic acid-containing composition 5.0 ppm, spilanthol 0.1 ppm, shallot extract 10.0 ppm; panel of 10 experts vs control without agent
Description: The taste-improving agents obtained in Production Examples 1-5 were used to examine the taste-improving effects on potassium salts or potassium salt-containing foods or drinks. [table] To a 0.75 wt % potassium chloride aqueous solution there were added each of the agents for improving taste of Production Examples 1-5, so that the content of the quinic acid-containing compositions (Production Examples 1 and 2), spilanthol (Production Examples 3 and 4) or shallot extract (Production Example 5) in the potassium chloride aqueous solution was as listed in Table 2, and an organoleptic evaluation was conducted by a panel of 10 experts based on the rating scale shown in Table 1, with a product containing no agent for improving taste according to the invention, as the control.

[4] = Organoleptic evaluation, cream stew (second Test Example 13); settings: addition quinic acid-containing composition 5.0 ppm, spilanthol 0.1 ppm, shallot extract 10.0 ppm, panel of 10 experts vs control
Description: as §1, with “reduced-sodium cream stew” for “reduced-sodium meat sauce”, “formulation 7” for “formulation 8”, “the stew” for “the meat sauce”, “Table 11,” for “Table 12,”

Q: Which Chicken flavor [1] does the source give for CC=CC=CCCC=CC(=O)NCC(C)C [Purified spilanthol (Prod. Ex. 4), N-isobutyl-2,6,8-decatrieneamide] here?
A: Its Chicken flavor is “− (No effect/change (fewer than 3/10 panelists noticed an effect compared to the control))”.

Q: And the Salty taste [1]?
A: Its Salty taste is “+ (Somewhat noticeable effect (at least 3/10 panelists noticed an effect compared to the control))”.

Q: What about the Unpleasant taste [1] of the same compound?
A: The Unpleasant taste was “+ (Somewhat noticeable effect (at least 3/10 panelists noticed an effect compared to the control))”.

Q: What about the Meat flavor [2] of the same compound?
A: The Meat flavor was “− (No effect/change (fewer than 3/10 panelists noticed an effect compared to the control))”.

Q: What about the Metallic taste [2] of the same compound?
A: The Metallic taste was “+ (Somewhat noticeable effect (at least 3/10 panelists noticed an effect compared to the control))”.

Q: What about the Tomato flavor [2] of the same compound?
A: Its Tomato flavor is “− (No effect/change (fewer than 3/10 panelists noticed an effect compared to the control))”.

Q: What about the Metallic taste [3] of the same compound?
A: Its Metallic taste is “++ (Noticeable effect (at least 5/10 panelists noticed an effect compared to the control))”.

Q: And the Milk flavor [4]?
A: The Milk flavor was “− (No effect/change (fewer than 3/10 panelists noticed an effect compared to the control))”.

Q: What about the Sweet taste [4] of the same compound?
A: Its Sweet taste is “− (No effect/change (fewer than 3/10 panelists noticed an effect compared to the control))”.

Q: And the Unpleasant taste [4]?
A: The Unpleasant taste was “+ (Somewhat noticeable effect (at least 3/10 panelists noticed an effect compared to the control))”.
